Test results taken from ChEMBL document CHEMBL1201862, “PubChem BioAssay data set” (2004).
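Test compounds were applied to cells in 96-well plates for 48 hours at 5 doses. GI50 is the concentration that inhibits growth by half.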 Calls of active or inactive are those of the source. Cut-off read from the data, not from the text of the source: active = GI50 up to about 1.1 µM and inactive = higher.

Legend:
Test in all cases: NCI anticancer screen, dose series, 48 h
[1] = test system: M14
[2] = test system: DMS-273
[3] = test system: CCRF-CEM
[4] = test system: HCT-15
[5] = test system: SK-MEL-2
[6] = test system: SNB-75
[7] = test system: 786-0
[8] = test system: RXF 393
[9] = test system: A549
[10] = test system: ACHN
[11] = test system: HCC 2998
[12] = test system: SF-268
[13] = test system: IGROV-1
[14] = test system: NCI-H522
[15] = test system: K562
[16] = test system: OVCAR-8
[17] = test system: SNB-78
[18] = test system: HCT-116
[19] = test system: RXF 631
[20] = test system: NCI-H23
[21] = test system: RPMI-8226
[22] = test system: A498
[23] = test system: NCI-H226
[24] = test system: HL-60
[25] = test system: KM-20L2
[26] = test system: LOX IMVI
[27] = test system: UACC-62
[28] = test system: HOP-18
[29] = test system: SF-295
[30] = test system: UO-31
[31] = test system: DMS-114
[32] = test system: HOP-62
[33] = test system: DLD-1
[34] = test system: M19-MEL
[35] = test system: NCI-H460
[36] = test system: SNB-19
[37] = test system: SF-539
[38] = test system: COLO 205
[39] = test system: OVCAR-3
[40] = test system: MOLT-4
[41] = test system: UACC-257
[42] = test system: LXFL 529
[43] = test system: HT-29
[44] = test system: OVCAR-4
[45] = test system: SK-MEL-28
[46] = test system: KM12
[47] = test system: XF498
[48] = test system: Malme-3M
[49] = test system: EKVX
[50] = test system: TK-10
[51] = test system: OVCAR-5
[52] = test system: SK-MEL-5
[53] = test system: SW-620
[54] = test system: SK-OV-3
[55] = test system: CAKI-1
[56] = test system: U-251
[57] = test system: HOP-92
[58] = test system: SR
[59] = test system: SN12C

In the case of `O=C(NNC(=O)/C(=C/c1cccc([N+](=O)[O-])c1)NC(=O)c1ccccc1)Nc1ccc(Cl)cc1`, the GI50 [1] is reported as 12.8 µM (inactive), the GI50 [2] is reported as 12.9 µM (inactive) and the GI50 [3] is reported as 6.58 µM (inactive). The GI50 [4] was 12.2 µM, the GI50 [5] was 12.2 µM (inactive) and the GI50 [6] was 13.6 µM (inactive). For the same compound, the GI50 [7] was 14 µM (inactive), the GI50 [8] was 11 µM (inactive) and the GI50 [9] was 14.3 µM (inactive). For the same compound, the GI50 [10] was 14 µM (inactive), the GI50 [11] was 13.1 µM (inactive) and the GI50 [12] was 15.1 µM (inactive). The GI50 [13] was 11.9 µM (inactive), the GI50 [14] was 12.3 µM (inactive) and the GI50 [15] was 5.66 µM (inactive). The GI50 [16] was 14.2 µM (inactive), the GI50 [17] was 24 µM (inactive) and the GI50 [18] was 13.4 µM (inactive). The GI50 [19] was 10.2 µM (inactive), the GI50 [20] was 15.1 µM (inactive) and the GI50 [21] was 9.55 µM (inactive). The GI50 [22] was 10.6 µM (inactive), the GI50 [23] was 15.1 µM (inactive) and the GI50 [24] was 6.5 µM (inactive). For the same compound, the GI50 [25] was 17.1 µM (inactive), the GI50 [26] was 15.6 µM (inactive) and the GI50 [27] was 14.5 µM (inactive). For the same compound, the GI50 [28] was 15.6 µM (inactive), the GI50 [29] was 18.7 µM (inactive) and the GI50 [30] was 13.5 µM (inactive). For the same compound, the GI50 [31] was 11.5 µM (inactive), the GI50 [32] was 14.3 µM (inactive) and the GI50 [33] was 12.6 µM (inactive). For the same compound, the GI50 [34] was 15.2 µM (inactive), the GI50 [35] was 14.6 µM (inactive) and the GI50 [36] was 12.7 µM (inactive). The GI50 [37] was 16.7 µM (inactive), the GI50 [38] was 13.4 µM (inactive) and the GI50 [39] was 11.6 µM (inactive). The GI50 [40] was 3.94 µM (inactive), the GI50 [41] was 17.6 µM (inactive) and the GI50 [42] was 10.6 µM (inactive). For the same compound, the GI50 [43] was 14.1 µM (inactive), the GI50 [44] was 11.2 µM (inactive) and the GI50 [45] was 15.5 µM (inactive). For the same compound, the GI50 [46] was 11.4 µM (inactive), the GI50 [47] was 9.53 µM (inactive) and the GI50 [48] was 14.2 µM (inactive). For the same compound, the GI50 [49] was 18.7 µM (inactive), the GI50 [50] was 15.5 µM (inactive) and the GI50 [51] was 18.3 µM (inactive). The GI50 [52] was 13.1 µM (inactive), the GI50 [53] was 15.1 µM (inactive) and the GI50 [54] was 15.8 µM (inactive). For the same compound, the GI50 [55] was 19.9 µM (inactive), the GI50 [56] was 14.2 µM (inactive) and the GI50 [57] was 21 µM (inactive). For the same compound, the GI50 [58] was 7.74 µM (inactive) and the GI50 [59] was 14.5 µM (inactive).
`CC(C)c1c2[nH]c3ccccc3c2c(C(C)C)c2[nH]c3ccccc3c12` was tested, and the GI50 [1] was > 74.8 µM (inactive), the GI50 [2] was 81.5 µM (inactive) and the GI50 [3] was > 52.5 µM (inactive). The GI50 [4] was 16 µM, the GI50 [5] was > 100 µM (inactive) and the GI50 [6] was > 89.7 µM (inactive). For the same compound, the GI50 [7] was > 52.5 µM (inactive), the GI50 [8] was > 100 µM (inactive) and the GI50 [9] was > 100 µM (inactive). For the same compound, the GI50 [10] was 91.8 µM (inactive), the GI50 [11] was > 34.8 µM (inactive) and the GI50 [12] was > 100 µM (inactive). The GI50 [13] was > 100 µM (inactive), the GI50 [14] was > 78.7 µM (inactive) and the GI50 [15] was 7.78 µM (inactive). The GI50 [16] was > 100 µM (inactive), the GI50 [17] was > 100 µM (inactive) and the GI50 [18] was > 67.3 µM (inactive). For the same compound, the GI50 [19] was > 100 µM (inactive), the GI50 [20] was > 100 µM (inactive) and the GI50 [21] was 17.7 µM (inactive). For the same compound, the GI50 [22] was > 100 µM (inactive), the GI50 [23] was > 47.3 µM (inactive) and the GI50 [24] was 16.5 µM (inactive). The GI50 [25] was 17.6 µM (inactive), the GI50 [26] was 35.5 µM (inactive) and the GI50 [27] was > 100 µM (inactive). The GI50 [28] was > 100 µM (inactive), the GI50 [29] was > 65.9 µM (inactive) and the GI50 [30] was > 100 µM (inactive). The GI50 [31] was > 100 µM (inactive), the GI50 [32] was > 100 µM (inactive) and the GI50 [33] was > 78.7 µM (inactive). The GI50 [34] was > 100 µM (inactive), the GI50 [35] was > 57.7 µM (inactive) and the GI50 [36] was > 100 µM (inactive). For the same compound, the GI50 [37] was > 100 µM (inactive), the GI50 [38] was 51.9 µM (inactive) and the GI50 [39] was > 54.1 µM (inactive). For the same compound, the GI50 [40] was > 63.2 µM (inactive), the GI50 [41] was > 100 µM (inactive) and the GI50 [42] was > 100 µM (inactive). For the same compound, the GI50 [43] was 10.9 µM (inactive), the GI50 [44] was > 45.3 µM (inactive) and the GI50 [45] was > 100 µM (inactive). For the same compound, the GI50 [46] was 29.9 µM (inactive), the GI50 [47] was > 100 µM (inactive) and the GI50 [48] was > 51.4 µM (inactive). For the same compound, the GI50 [49] was > 100 µM (inactive), the GI50 [50] was > 100 µM (inactive) and the GI50 [51] was 47.5 µM (inactive). For the same compound, the GI50 [52] was > 100 µM (inactive), the GI50 [53] was > 82 µM (inactive) and the GI50 [54] was > 100 µM (inactive). For the same compound, the GI50 [55] was > 76.6 µM (inactive), the GI50 [56] was > 100 µM (inactive) and the GI50 [57] was 22.4 µM (inactive). The GI50 [58] was 24.7 µM (inactive) and the GI50 [59] was 35.6 µM (inactive).
